Laboratory results taken from US20250129067A1 (Progentos Therapeutics, Inc., priority 2021, published 2025).

Legend:
PDGFRα = PDGFRα (Homo sapiens (Human), UniProt P16234); assay: PDGFRα kinase enzyme assay (Promega PDGFRα Kinase Enzyme System, ADP-Glo); assay type: biochemical; settings: 11-point dose response, 10,000 nM to 0.169 nM; 150 uM ATP; BLQ = below limit of quantitation; read-out: IC50 Values on PDGFRα Kinase Inhibition, IC50
Procedure, shortened: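 Read-out was ADP-Glo: remaining ATP depleted, ADP converted to luminescence and compared with a standard curve.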

[1] = test system: Oligodendrocyte progenitor cells (OPCs); assay: In vitro OPC differentiation assay, GPR17 expression (immunocytochemistry); settings: 3 μM (10× concentration, final 0.3 μM); 72 hours; fold change over vehicle

Chain of PDGFRα (P16234 24-1089): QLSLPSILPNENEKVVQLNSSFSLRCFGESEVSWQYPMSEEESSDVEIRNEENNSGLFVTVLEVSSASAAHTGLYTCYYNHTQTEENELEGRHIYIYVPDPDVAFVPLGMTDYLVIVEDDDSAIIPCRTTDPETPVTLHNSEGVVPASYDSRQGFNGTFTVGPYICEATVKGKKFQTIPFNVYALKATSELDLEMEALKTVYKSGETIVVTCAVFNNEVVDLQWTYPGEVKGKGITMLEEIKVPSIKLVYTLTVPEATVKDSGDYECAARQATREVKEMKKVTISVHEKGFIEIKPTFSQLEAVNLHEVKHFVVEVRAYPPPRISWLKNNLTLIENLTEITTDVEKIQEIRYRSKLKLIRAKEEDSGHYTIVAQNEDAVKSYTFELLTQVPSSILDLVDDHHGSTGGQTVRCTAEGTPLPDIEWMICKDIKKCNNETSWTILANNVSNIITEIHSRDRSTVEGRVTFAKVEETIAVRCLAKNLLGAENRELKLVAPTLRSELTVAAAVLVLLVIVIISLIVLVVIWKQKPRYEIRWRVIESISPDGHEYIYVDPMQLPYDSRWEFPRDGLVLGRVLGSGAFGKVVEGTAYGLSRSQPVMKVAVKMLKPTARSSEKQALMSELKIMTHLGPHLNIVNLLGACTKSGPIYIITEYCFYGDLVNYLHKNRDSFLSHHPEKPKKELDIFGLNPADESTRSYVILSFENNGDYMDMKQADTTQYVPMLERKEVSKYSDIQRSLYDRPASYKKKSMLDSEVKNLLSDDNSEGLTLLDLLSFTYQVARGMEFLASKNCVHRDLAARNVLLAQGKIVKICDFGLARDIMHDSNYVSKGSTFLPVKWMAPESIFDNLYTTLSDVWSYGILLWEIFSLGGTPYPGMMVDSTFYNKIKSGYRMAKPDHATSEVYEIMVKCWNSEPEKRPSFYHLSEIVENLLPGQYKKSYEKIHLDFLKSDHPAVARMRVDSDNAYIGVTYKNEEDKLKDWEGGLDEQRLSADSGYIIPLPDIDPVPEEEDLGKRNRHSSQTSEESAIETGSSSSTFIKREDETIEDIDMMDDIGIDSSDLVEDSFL

Row | Compound | IC50 (PDGFRα) [nM] | GPR17 Fold Induction (Over Vehicle; 3 μM) [1]
1 | Cn1cc(-c2ccc3c(N4CCN(c5ncc(Cn6ccc7ccccc76)cn5)CC4)cnn3c2)cn1 [Compound 191, 3-(4-(5-((1H-indol-1-yl)methyl)pyrimidin-2-yl)piperazin-1-yl)-6-(1-methyl-1H-pyrazol-4-yl)pyrazolo[1,5-a]pyridine] | 287 | 23.57
2 | Cn1cc(-c2ccc3c(N4CCN(c5ncc([C@H](O)[C@@H]6CCCOC6)cn5)CC4)cnn3c2)cn1 [Compound 192, (R)-(2-(4-(6-(1-methyl-1H-pyrazol-4-yl)pyrazolo[1,5-a]pyridin-3-yl)piperazin-1-yl)pyrimidin-5-yl)((R)-tetrahydro-2H-pyran-3-yl)methanol] | 31 | 14.76
3 | Cn1cc(-c2ccc3c(N4CCN(c5ncc([C@@H](O)[C@@H]6CCCOC6)cn5)CC4)cnn3c2)cn1 [Compound 193, (S)-(2-(4-(6-(1-methyl-1H-pyrazol-4-yl)pyrazolo[1,5-a]pyridin-3-yl)piperazin-1-yl)pyrimidin-5-yl)((R)-tetrahydro-2H-pyran-3-yl)methanol] | 69.1 | 11.72
4 | Cn1cc(-c2ccc3c(N4CCN(c5ncc(C(O)C6CCCCO6)cn5)CC4)cnn3c2)cn1 (centres unmarked) [Compound 194, (2-(4-(6-(1-methyl-1H-pyrazol-4-yl)pyrazolo[1,5-a]pyridin-3-yl)piperazin-1-yl)pyrimidin-5-yl)(tetrahydro-2H-pyran-2-yl)methanol] | 195 | 8.67
5 | Cn1cc(-c2ccc3c(N4CCN(C(=O)OCc5ncc(Cl)s5)CC4)cnn3c2)cn1 [Compound 195, (5-chlorothiazol-2-yl)methyl 4-(6-(1-methyl-1H-pyrazol-4-yl)pyrazolo[1,5-a]pyridin-3-yl)piperazine-1-carboxylate] | 1230 | 5.57
6 | Cn1cc(-c2ccc3c(N4CCN(C(=O)OCc5ccc(Cl)s5)CC4)cnn3c2)cn1 [Compound 196, (5-chlorothiophen-2-yl)methyl 4-(6-(1-methyl-1H-pyrazol-4-yl)pyrazolo[1,5-a]pyridin-3-yl)piperazine-1-carboxylate] | 522 | 5.65
7 | Cn1cc(-c2ccc3c(N4CCN(C(=O)OCc5csc(Cl)c5)CC4)cnn3c2)cn1 [Compound 197, (5-chlorothiophen-3-yl)methyl 4-(6-(1-methyl-1H-pyrazol-4-yl)pyrazolo[1,5-a]pyridin-3-yl)piperazine-1-carboxylate] | 65.3 | 12.24
8 | Cc1cnc(COC(=O)N2CCN(c3cnn4cc(-c5cnn(C)c5)ccc34)CC2)o1 [Compound 199, (5-methyloxazol-2-yl)methyl 4-(6-(1-methyl-1H-pyrazol-4-yl)pyrazolo[1,5-a]pyridin-3-yl)piperazine-1-carboxylate] | 1240 | 4.08
9 | Cn1cc(-c2ccc3c(N4CCN(Cc5csc(Cl)c5)CC4)cnn3c2)cn1 [Compound 200, 3-(4-((5-chlorothiophen-3-yl)methyl)piperazin-1-yl)-6-(1-methyl-1H-pyrazol-4-yl)pyrazolo[1,5-a]pyridine] | 6960 | 2.20
10 | Cc1ccc(CN2CCN(c3cnn4cc(-c5cnn(C)c5)ccc34)CC2)o1 [Compound 201, 6-(1-methyl-1H-pyrazol-4-yl)-3-(4-((5-methylfuran-2-yl)methyl)piperazin-1-yl)pyrazolo[1,5-a]pyridine] | > 10000 | 1.30
11 | CCCc1ccc2c(N3CCN(C(=O)OC(C)(C)C)CC3)cnn2c1 [Compound 203, tert-butyl 4-(6-propylpyrazolo[1,5-a]pyridin-3-yl)piperazine-1-carboxylate] | > 10000 | 1.35
12 | CC(C)(C)OC(=O)N1CCN(c2cnn3cc(CCCO)ccc23)CC1 [Compound 204, tert-butyl 4-(6-(3-hydroxypropyl)pyrazolo[1,5-a]pyridin-3-yl)piperazine-1-carboxylate] | > 10000 | 1.20
13 | CC(C)(C)OC(=O)N1CCN(c2cnn3cc(CCCN4CCCC4)ccc23)CC1 [Compound 205, tert-butyl-4-(6-(3-(pyrrolidin-1-yl)propyl)pyrazolo[1,5-a]pyridin-3-yl)piperazine-1-carboxylate] | > 10000 | 1.92
14 | CC(C)(C)OC(=O)N1CCN(c2cnn3cc(-c4ccccc4)ccc23)CC1 [Compound 206, tert-butyl 4-(6-phenylpyrazolo[1,5-a]pyridin-3-yl)piperazine-1-carboxylate] | 5340 | 3.32
15 | CC(C)(C)OC(=O)N1CCN(c2cnn3cc(-c4ccc(F)cc4)ccc23)CC1 [Compound 207, tert-butyl 4-(6-(4-fluorophenyl)pyrazolo[1,5-a]pyridin-3-yl)piperazine-1-carboxylate] | 4830 | 2.24
16 | CC(C)(C)OC(=O)N1CCN(c2cnn3cc(-c4cccc(F)c4)ccc23)CC1 [Compound 208, tert-butyl 4-(6-(3-fluorophenyl)pyrazolo[1,5-a]pyridin-3-yl)piperazine-1-carboxylate] | > 10000 | 1.22

Row | Compound | IC50 (PDGFRα) [nM] | GPR17 Fold Induction (Over Vehicle; 3 μM) [1]
17 | CC(C)(C)OC(=O)N1CCN(c2cnn3cc(-c4ccccc4F)ccc23)CC1 [Compound 209, tert-butyl-4-(6-(2-fluorophenyl)pyrazolo[1,5-a]pyridin-3-yl)piperazine-1-carboxylate] | > 10000 | 2.02
18 | COc1ccc(-c2ccc3c(N4CCN(C(=O)OC(C)(C)C)CC4)cnn3c2)cc1 [Compound 210, tert-butyl 4-(6-(4-methoxyphenyl)pyrazolo[1,5-a]pyridin-3-yl)piperazine-1-carboxylate] | 7480 | 4.38
19 | COc1cccc(-c2ccc3c(N4CCN(C(=O)OC(C)(C)C)CC4)cnn3c2)c1 [Compound 211, tert-butyl 4-(6-(3-methoxyphenyl)pyrazolo[1,5-a]pyridin-3-yl)piperazine-1-carboxylate] | 7380 | 2.54
20 | COc1ccccc1-c1ccc2c(N3CCN(C(=O)OC(C)(C)C)CC3)cnn2c1 [Compound 212, tert-butyl 4-(6-(2-methoxyphenyl)pyrazolo[1,5-a]pyridin-3-yl)piperazine-1-carboxylate] | 3670 | 2.51
21 | CC(C)(C)OC(=O)N1CCN(c2cnn3cc(C4CC4)ccc23)CC1 [Compound 213, tert-butyl 4-{6-cyclopropylpyrazolo[1,5-a]pyridin-3-yl}piperazine-1-carboxylate] | > 10000 | 0.68
22 | CC(C)(C)OC(=O)N1CCN(c2cnn3cc(C4CCCC4)ccc23)CC1 [Compound 214, tert-butyl 4-(6-cyclopentylpyrazolo[1,5-a]pyridin-3-yl)piperazine-1-carboxylate] | > 10000 | 2.00
23 | CC(C)(C)OC(=O)N1CCN(c2cnn3cc(C4CCC(O)C4)ccc23)CC1 (centres unmarked) [Compound 215, tert-butyl 4-[6-(3-hydroxycyclopentyl)pyrazolo[1,5-a]pyridin-3-yl]piperazine-1-carboxylate] | > 10000 | 0.76
24 | CC(C)(C)OC(=O)N1CCN(c2cnn3cc(-c4ccccn4)ccc23)CC1 [Compound 216, tert-butyl 4-[6-(pyridin-2-yl)pyrazolo[1,5-a]pyridin-3-yl]piperazine-1-carboxylate] | 1000 | 1.92
25 | CC(C)(C)OC(=O)N1CCN(c2cnn3cc(-c4ccncc4)ccc23)CC1 [Compound 218, tert-butyl 4-(6-(pyridin-4-yl)pyrazolo[1,5-a]pyridin-3-yl)piperazine-1-carboxylate] | 2310 | 3.46
26 | CC(C)(C)OC(=O)N1CCN(c2cnn3cc(-c4cncnc4)ccc23)CC1 [Compound 219, tert-butyl 4-(6-(pyrimidin-5-yl)pyrazolo[1,5-a]pyridin-3-yl)piperazine-1-carboxylate] | > 10000 | 1.42
27 | Cc1nn(C)cc1-c1ccc2c(N3CCN(C(=O)OC(C)(C)C)CC3)cnn2c1 [Compound 220, tert-butyl 4-(6-(1,3-dimethyl-1H-pyrazol-4-yl)pyrazolo[1,5-a]pyridin-3-yl)piperazine-1-carboxylate] | 528 | 5.20
28 | Cc1c(-c2ccc3c(N4CCN(C(=O)OC(C)(C)C)CC4)cnn3c2)cnn1C [Compound 221, tert-butyl 4-(6-(1,5-dimethyl-1H-pyrazol-4-yl)pyrazolo[1,5-a]pyridin-3-yl)piperazine-1-carboxylate] | 506 | 6.61
29 | Cc1nn(C)c(C)c1-c1ccc2c(N3CCN(C(=O)OC(C)(C)C)CC3)cnn2c1 [Compound 222, tert-butyl 4-(6-(1,3,5-trimethyl-1H-pyrazol-4-yl)pyrazolo[1,5-a]pyridin-3-yl)piperazine-1-carboxylate] | 912 | 3.74
30 | CN1CCC(c2ccc3c(N4CCN(C(=O)OC(C)(C)C)CC4)cnn3c2)C1 (centres unmarked) [Compound 223, tert-butyl 4-(6-(1-methylpyrrolidin-3-yl)pyrazolo[1,5-a]pyridin-3-yl)piperazine-1-carboxylate] | 9250 | 1.13
31 | CC(C)(C)OC(=O)N1CCN(c2cnn3cc(C4CCOCC4)ccc23)CC1 [Compound 224, tert-butyl-4-(6-(tetrahydro-2H-pyran-4-yl)pyrazolo[1,5-a]pyridin-3-yl)piperazine-1-carboxylate] | > 10000 | 0.66
